Results reported in article PMC9875641, “Ophthalmic Solution of Smart Supramolecular Peptides to Capture Semaphorin 4D against Diabetic Retinopathy” (Advanced Science, 2022).
Values belong to the substance of their own block, whether it stands above or below them.

Legend:
sSema 4D = target: T1, sSema 4D (Homo sapiens, UniProt Q92854); test: ELISA binding affinity of TPs and SSPs to sSema 4D (and BSA)
T1 construct: purchased Novoprotein Ltd. (Suzhou, China)
T1 sequence (Q92854 22-734 limits assumed): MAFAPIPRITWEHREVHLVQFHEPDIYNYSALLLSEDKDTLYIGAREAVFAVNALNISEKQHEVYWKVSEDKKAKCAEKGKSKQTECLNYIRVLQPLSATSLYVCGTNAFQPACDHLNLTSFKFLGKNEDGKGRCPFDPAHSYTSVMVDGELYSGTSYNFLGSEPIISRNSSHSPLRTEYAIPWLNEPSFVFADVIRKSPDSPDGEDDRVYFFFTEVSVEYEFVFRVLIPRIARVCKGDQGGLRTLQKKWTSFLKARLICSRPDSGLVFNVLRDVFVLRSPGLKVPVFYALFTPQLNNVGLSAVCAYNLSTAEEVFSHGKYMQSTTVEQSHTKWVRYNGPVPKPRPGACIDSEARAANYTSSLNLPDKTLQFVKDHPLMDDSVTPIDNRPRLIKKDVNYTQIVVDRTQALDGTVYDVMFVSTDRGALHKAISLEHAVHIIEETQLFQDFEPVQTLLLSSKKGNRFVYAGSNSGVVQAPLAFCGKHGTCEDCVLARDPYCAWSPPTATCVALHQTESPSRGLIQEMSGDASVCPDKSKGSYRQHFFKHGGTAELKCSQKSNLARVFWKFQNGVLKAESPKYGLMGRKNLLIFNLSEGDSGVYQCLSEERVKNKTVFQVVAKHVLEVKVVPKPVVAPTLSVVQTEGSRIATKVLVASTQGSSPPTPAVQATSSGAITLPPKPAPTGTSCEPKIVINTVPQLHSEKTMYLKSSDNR
Procedure: To carry out the library screening, we first labeled the sSema4D with fluorescein isothiocyanate isomer (FITC), as shown in Figure 2E. Next, ≈10^6 beads library was incubated with FITC‐labeled sSema4D for 6 hours. The beads were thoroughly washed with DMF, water and methanol. Finally, under the fluorescence microscope, the beads with […] to sSema4D or FITC‐labeled sSema4D through noncovalent bonding were identified in Figure 2F. We selected twelve strongest putative fluorescent beads by physical separation. Subsequently, the corresponding peptides were cleaved off with BrCN from beads and analyzed by automatic Edman sequencing. The structures and sequence of transformable peptides (TPs) were determined and summarized (Figure S2, Supporting Information). TP‐1 to TP‐12 were resynthesized into solid phase and purified by high performance liquid chromatography (HPLC). The binding affinity of TPs toward sSema 4D was measured by enzyme‐linked immunosorbent assay (ELISA) and surface plasmon resonance imaging (SPRi). […] TP‐2 and TP‐7 were selected as the candidate TP binding sSema 4D to construct SSP. Subsequent SSP monomers (SSP‐1, sequence: C16‐FFVLK‐KQKRPRH; SSP‐2 C16‐FFVLK‐KNKAAKG) were synthesized and characterized by HPLC and Matrix‐assisted laser desorption/ionization time‐of‐flight mass spectrometry (MALDI‐TOF‐MS).

OIR model = test: Oxygen-induced retinopathy (OIR) model, pathological retinal neovascularization; type: in vivo, mouse; settings: for reduction of pathological retinal neovascularization by eye drops plus anti-VEGF injection compared with anti-VEGF injection alone: isolectin B4, anti-VEGF antibody 2 µg intravitreal at P12, eye drops twice a day until P17, on average
Procedure: follows: 5’-[…]-3’, 5’- […]
OIR. OIR model was performed as previously described. The pups and their mothers […]
were exposed to 75% oxygen at 7-12 days after birth, and then exposed to indoor air […]
for another 5 days. At P17, the mice were anesthetized and sacrificed, and the retinas […]
Isolectin B4. Isolectin B4 staining for retinal blood vessel visualization is as […]
described above. After fixing the eyeball with 4% paraformaldehyde (overnight at 4 […]
degrees), the intact retina was peeled off using microscissors and micro tweezers.
After rupture of the membrane with 2% Triton X-100, the retina was placed in the […]
configured isolectin B4 staining (1:100) overnight at 4 degrees. Acquire multiple […]
overlapping (10-20% overlap) images using a fluorescence microscope and merge […]
them together in Adobe Photoshop to visualize the entire retina. Use ImageJ software to quantify the area of pathological neovascularization relative to the total retinal area. […]
Statistical analysis. Statistical analysis was conducted using Graphpad Prism 8.0 software. All data were expressed by mean ± SD. Unpaired two-tailed Student’s t-test (two groups) or one-way ANOVA (more than 2 groups) was used to analyze the statistical significances of the data. Person’s correlation analysis was conducted to […]

pericytes = test: Transwell migration of pericytes induced by recombinant Sema4D; type: cell-based, mouse; settings: transwell assay, n = 3
Cy5-labeled sSema4D = target: T2, Cy5-labeled sSema4D (Homo sapiens, UniProt Q92854); test: CLSM recognition and capture of sSema4D; type: binding; settings: FITC-labeled SSP with Cy5-labeled sSema4D, 6 h
T2 construct: purchased Novoprotein Ltd. (Suzhou, China)
T2 sequence (Q92854 22-734 limits assumed): T1 sequence (Q92854 22-734 limits assumed)
Procedure: FITC‐labeled SSP‐1 or SSP‐2 and Cy5‐labeled sSema4D proteins were synthesized. Cy5‐labeled sSema4D were incubated with FITC‐labeled SSP‐1 and SSP‐2 nanostructure solutions for 6 h, respectively. […]
a resolution of 1.0 nm and a scanning speed of 300 nm/min. For each measurement, three spectra were collected and averaged.
CLSM observation. Sema4D protein was purchased from Novoprotein Ltd. (Suzhou, China). Sema4D protein cultured with SSP-1 or SSP-2 nanomaterials (30 μM) for 4 h were imaged using a Zeiss LSM710 confocal laser scanning microscope
(Ultra-VIEWVox, PerkinElmer). The parameters of confocal laser scanning microscope was a 40× objective lens.
Patient. Vitreous humor samples of DR patients were obtained immediately before intravitreal injection of anti-VEGF agents. Control vitreous humor samples were collected from nondiabetic patients receiving surgery for idiopathic macular hole. All of the human vitreous humor samples were collected based on informed consent. The vitreous samples were centrifuged at 4°C, and the supernatants were aliquoted into several sterile tubes and stored at -80°C. The procedure was approved by an ethics committee of Tongji Medical College, Huazhong University of Science and Technology, and strictly followed the Declaration of Helsinki guidelines.
Cell culture. […]

[1] = eye drops 5 µL per eye twice daily P12 to P17, n = 8, equal to intraocular anti-Sema4D antibody
[2] = eye drops 5 µL per eye twice daily P12 to P17, vs littermate controls, n = 7
[3] = intravitreal injection at P12, retinas at P17, n = 8, effect equal to Sema4D antibody
[4] = intravitreal injection at P12, retinas at P17, vs littermate controls, n = 6

recognition and trapping of sSema4D (merge images) (Cy5-labeled sSema4D): could completely cover the sSema4D
Substance: C16‐FFVLK‐KNKAAKG [SSP-2, smart supramolecular peptide, C16‐FFVLK‐KNKAAKG, self-assembling, captures sSema4D]
binding affinity with sSema4D on ELISA, compared with TPs (sSema 4D): higher binding affinity compared with TPs
pathological retinal vascular neovascularization (isolectin B4 staining) (OIR model; [1]): decreased
numbers of preretinal neovascular cells (OIR model; [2]): significantly decreased
pathological retinal vascular neovascularization (isolectin B4 staining) (OIR model; [3]): decreased
numbers of preretinal neovascular cells (OIR model; [4]): significantly reduced
reduction of pathological retinal neovascularization by eye drops plus anti-VEGF injection compared with anti-VEGF injection alone (OIR model): 22.68%
recombinant Sema4D protein-induced pericyte migration (pericytes): reduced

recognition and trapping of sSema4D (merge images) (Cy5-labeled sSema4D): could completely cover the sSema4D
Substance: C16‐FFVLK‐KQKRPRH [SSP-1, smart supramolecular peptide, C16‐FFVLK‐KQKRPRH, self-assembling, captures sSema4D]
binding affinity with sSema4D on ELISA, compared with TPs (sSema 4D): higher binding affinity compared with TPs
pathological retinal vascular neovascularization (isolectin B4 staining) (OIR model; [1]): decreased
numbers of preretinal neovascular cells (OIR model; [2]): significantly decreased
pathological retinal vascular neovascularization (isolectin B4 staining) (OIR model; [3]): decreased
numbers of preretinal neovascular cells (OIR model; [4]): significantly reduced
reduction of pathological retinal neovascularization by eye drops plus anti-VEGF injection compared with anti-VEGF injection alone (OIR model): 25.72%
recombinant Sema4D protein-induced pericyte migration (pericytes): reduced
